In patent publication US11492374B2 (priority 2020, dated 2022):
pIC50: −log10 of the molar value.

Tests used:
[1] = molecular target: recombinant human kappa opioid receptor (KOR) (Homo sapiens (Human), UniProt P41145); type: binding
[2] = molecular target: recombinant human mu opioid receptor (MOR) (Homo sapiens (Human), UniProt P35372); assay: Opioid receptor radioligand binding assay, MOR ([3H]DAMGO); settings: membranes of HEK293 cells expressing recombinant human MOR; 0.5 nM [3H]DAMGO

## CC(C)C[C@@H](NC(=O)[C@@H](Cc1ccccc1)NC(=O)[C@H](N)[C@H](C)c1ccccc1)C(=O)N[C@H](CCCCN)C(=O)N1CCC(N)(C(=O)O)CC1 [Compound 18]
[1]
  pIC50: 9.60
  δ/k: >39603
  μ/k: 38855
[2]
  pIC50: 5.01
